Experimental data reported in patent US20060154984A1, “Therapeutic use of acyl glycerols and the nitrogen- and sulphur- containing analogues thereof” (priority 2003, published 2006).

What was measured:
[1] = Plasma lipids in Sprague Dawley rats according to the formulation used; assay type: in vivo, rat; conditions: gavage every day for 15 days, with Cremophor RH40 compared with CMC and Solutol HS15
Protocol: A 0.5% (mN) solution of CMC was prepared in water and mixed with 0.1% (VN) Tween 80, then stirred overnight. The inventive compounds were then added and dissolved by stirring and ultrasonication for 30 minutes at 60° C.
The emulsion comprising an inventive compound and a surfactant, Cremophor® RH40 (Polyoxyl 40 Hydrogenated Castor Oil) or Solutol® HS15 (polyethylene glycol 660 12-hydroxystearate) was prepared as follows: the inventive compound was dissolved in a solution of Cremophor® RH40 or Solutol® HS15 previously heated in a water-bath at 60° C. in a ratio for example of 6:1 (m/m). The mixture was placed in a water-bath at 60° C. until a homogeneous mixture was obtained. Said mixture was then dispersed by ultrasonication for 20 minutes at 60° C., at which time the solution became translucid. While stirring, water (MilliQ) preheated at 60° C. was added to the solution to give the desired concentration of the compound. The solution was then mixed on a Vortex® mixer, returned to the water-bath (60° C.) and optionally dispersed by ultrasonication for 30 minutes.
To this end, the compounds were administered by gavage to Sprague Dawley rats every day for 15 days. […]

[2] = tested on: dopaminergic neurons; assay: Rat model of Parkinson's disease (6-OHDA), immunohistochemistry with anti-TH antibody; assay type: in vivo; conditions: Wistar rats, 300 mg/kg per day in diet, 6-OHDA lesion; versus rats fed a normal diet
Protocol: (§1) Adult male Wistar rats (280-300 g) were maintained on a 12-hour light/dark cycle at a constant temperature of 20±3° C. Animals had access to food and water ad libitum and weight gain was recorded.
(§2) Animals were fed a normal diet or a diet supplemented with the inventive compounds (300 mg/kg per day) for 7 days before induction of the dopaminergic lesion and for 15 days after induction of same.
(§3) Seven days after commencement of treatment with the inventive compounds, the rats were stereotactically injected with 6-OHDA (4 μg for 8 min) or buffer (sham rats) in the left part of the median tract of the telencephalon to induce striatonigral denervation.
Tyrosine hydroxylase (TH) is an enzyme which catalyzes the transformation of tyrosine to […]. It is used to label dopaminergic neurons. After the apomorphine sensitization test, the animals were sacrificed and the brains were removed. Brain slices were incubated with anti-TH antibody (SCBT, Santa Cruz, Calif.) and then with a second biotinylated antibody. Visualization was with the ABC staining system kit (Tebu) according to the supplier's instructions.
Viable cells labelled with anti-TH antibody (TH+ cells) were counted. […]

[3] = tested on: 6-OHDA-induced dopaminergic lesion; assay: Rat model of Parkinson's disease (6-OHDA), behavioral sensitization to apomorphine; assay type: in vivo; conditions: Wistar rats, 300 mg/kg per day in diet, 7 days before and 15 days after 6-OHDA lesion
Protocol: as §1, §2
6-hydroxydopamine (6-OHDA) is a neurotoxin taken up by dopaminergic neurons via a dopamine transporter. Injection of said compound into striatonigral projections induces selective destruction of dopaminergic neurons, and has allowed the development of many animal models of Parkinson's disease (Bordet et al., 2000).
as §3
Apomorphine is a dopaminergic agonist which stimulates D1 and D2 receptors. The intensity of rotational behavior is an index allowing to measure the severity of the striatonigral lesion. At the end of the treatment, rats received an intraperitoneal injection of apomorphine and rotational behavior was evaluated 15 minutes after sensitization and for a 10 minute period.

SMILES: CCCCCCCCCCCCCCSCC(=O)OCC(COC(=O)CSCCCCCCCCCCCCCC)OC(=O)CSCCCCCCCCCCCCCC [Ex 4a, 1,2,3-tritetradecylthioacetylglycerol]
- plasma triglycerides [1]: larger decrease
- total plasma cholesterol [1]: larger decrease
- number of neurons labelled with anti-tyrosine hydroxylase (TH+ neurons) [2]: greater number of neurons
- number of apomorphine-induced rotations [3]: prophylactic and curative properties
